The conditions of data set [1]: Liquid; for mass density: 293.15 K, 101.33 kPa, Pycnometric method; for Normal boiling temperature: Fischer Boiling Apparatus.
Data set [2] is described as follows: refractive index (Na D-line) (dimensionless). The settings on record: 293.15 K; 101.33 kPa; Liquid; Standard Abbe refractometry.

Each structure is given as a SMILES string. ± gives the expanded uncertainty stated by the source.

We go through six molecules from the NIST ThermoML archive (doi:10.1016/j.fluid.2012.06.020).

Usually mass density stands for mass per unit of volume. By refractive index is commonly meant a measure of how strongly the sample bends light.

For the molecule `O=CO` [formic acid], in data set [1], the mass density is 1218.5 ± 1.5 kg/m3 and the Normal boiling temperature worked out at 101.1 ± 1 °C. The refractive index in data set [2] was 1.3721 ± 0.0005.
On to `CCCCC(=O)O` [pentanoic acid], for which, in data set [1], the mass density was 932.5 ± 0.4 kg/m3 and the Normal boiling temperature is 186.00 ± 1 °C. Further, in data set [2], the refractive index is reported as 1.4088 ± 0.0004.
On the same counts, the results for `CC(=O)O` [acetic acid] are 1044.3 ± 0.47 kg/m3, 117.80 ± 1 °C and 1.371 ± 0.0004.
On the same counts, the results for `O` [water] are 999.9 ± 0.26 kg/m3, 100.1 ± 1 °C and 1.3324 ± 0.0003.
For `CCCCCCCCCCCO` [1-undecanol], in data set [1], the mass density is listed as 829.2 ± 0.74 kg/m3 and the Normal boiling temperature was 245.1 ± 1 °C. Further, the refractive index in data set [2] came to 1.4402 ± 0.0005.
`CCC(=O)O` [propanoic acid]: in data set [1], the mass density is on record as 988.1 ± 0.43 kg/m3 and the Normal boiling temperature was 141.1 ± 1 °C. Besides, in data set [2], the refractive index is given as 1.3808 ± 0.0004.
